Results reported in US8343934B2, “Diverse lead compound autotaxin inhibitors” (University of Memphis, priority 2009, dated 2013).

Target: T1, ATX (Homo sapiens, UniProt Q13822)
T1 construct: conditioned serum-free medium (CCM) from MDA-MB-435 cells as the source of ATX; endogenous in cells; host or cells: MDA-MB-435 cells (about 10x concentrated conditioned serum-free medium)
Assay: ATX inhibition assay (FS-3 substrate)
Type: biochemical
Details: for % ATX Acitivity (10 μM): 10 μM compound; for % ATX Acitivity (10 μM) / IC50: FS-3 substrate; for % Response: preliminary screen, FS-3 hydrolysis at one hour, normalized to vehicle control, mean±S.D., same values given at 10 μM in Table 5
Description: ATX inhibition was assayed using the substrate FS-3 (Echelon Biosciences, Inc., Salt Lake City, Utah, USA). The FS-3 assay used ˜10 times concentrated conditioned serum-free medium (CCM) from MDA-MB-435 cells as the source of ATX, while CCM comprised one-third of the total volume. The final volume for FS-3 was comprised of the substrate at varying concentrations and 30 μM charcoal-stripped fatty acid free BSA (Sigma Aldrich) in assay buffer (1 mM each CaCl2 and MgCl2, 5 mM KCl, 140 mM NaCl, 50 mM Tris pH 8.0).
All assays were performed in 96-well plates with data read at 1 minute intervals by a Synergy2 system (BioTek, Winooski, Vt.). The fluorescence produced upon the hydrolysis of FS-3 was monitored using an excitation wavelength of 485 nm and an emission wavelength of 528 nm at 37° C. (Ferguson et al., 2006). […] All readings were normalized to vehicle control after subtraction of fluorescence in the absence of CCM. Data are shown as the mean±S.D. of at least three wells.

[1] = Calculated IC50 data for the 30 active compounds

With `Nc1ccc2cc(S(=O)(=O)O)c(/N=N/c3ccc(-c4ccc(/N=N/c5c(S(=O)(=O)O)cc6cc(S(=O)(=O)O)cc(N)c6c5O)cc4)cc3)c(O)c2c1` [NSC 75779] the “% ATX Acitivity (10 μM)” value was 20 ± 5.7% and the IC50 (Table 5) was 1.26 µM.

In the case of `O=C1C(c2[nH]c3ccc(S(=O)(=O)O)cc3c2O)=Nc2ccc(S(=O)(=O)O)cc21` [compound 8646], the “% Response” value is reported as 88 ± 9.2%.

`O=C(O)c1ccccc1-c1c2ccc(=Nc3ccccc3)cc-2oc2cc(Nc3ccc(S(=O)(=O)O)cc3)ccc12.[Na+]` [compound 11242] was tested, and the “% Response” value was 73 ± 3.7%.

With `O=C(O)c1ccc(C(=O)NCCCN(CCCCN(CCCNC(=O)c2ccc(C(=O)O)c(O)c2O)C(=O)c2ccc(C(=O)O)c(O)c2O)C(=O)c2ccc(C(=O)O)c(O)c2O)c(O)c1O.[Na+]` [compound 338310] the IC50 [1] was 7.96 µM and the “% Response” value was 24 ± 2.9%.

For `Nc1ccc(N=Nc2ccc(-c3ccc(N=Nc4c(S(=O)(=O)O)cc5cc(S(=O)(=O)O)c(N=Nc6ccc([N+](=O)[O-])cc6)c(N)c5c4O)cc3)cc2)c(N)c1.[Na+]` [compound 65848], the IC50 [1] was 15.2 µM and the “% Response” value was 48 ± 4.8%.

In the case of `Cc1[nH]n(-c2cc(S(=O)(=O)O)ccc2Cl)c(=O)c1N=Nc1c(NC(=O)c2ccc(N)cc2)ccc2cc(S(=O)(=O)O)ccc12.[Na+]` [compound 75963], the “% Response” value is reported as 51 ± 4.4%.

With `Cc1ccc(C)c(N=Nc2c(S(=O)(=O)O)cc3cc(NC(=O)Nc4ccc5c(O)c(N=Nc6ccc7cc(S(=O)(=O)O)ccc7c6)c(S(=O)(=O)O)cc5c4)ccc3c2O)c1.[Na+]` [compound 65576] the IC50 [1] was 15.5 µM and the “% Response” value was 35 ± 5.8%.

With `Nc1c(N=Nc2ccc([N+](=O)[O-])cc2)c(S(=O)(=O)O)cc2cc(S(=O)(=O)O)c(N=Nc3ccc(-c4ccc(N=Nc5c(S(=O)(=O)O)cc6cc(S(=O)(=O)O)c(N=Nc7ccc([N+](=O)[O-])cc7)c(N)c6c5O)cc4)cc3)c(O)c12.[Na+]` [compound 65869] the IC50 [1] was 22.7 µM and the “% Response” value was 46 ± 6.7%.

For `NC(=N\N=C/c1ccc(O)c(S(=O)(=O)O)c1)/C(N)=N\N=C/c1ccc(O)c(S(=O)(=O)O)c1.[Na+]` [compound 47470], the “% Response” value was 90 ± 3.2%.

For `Cc1ccccc1N=Nc1ccc(N=Nc2c(S(=O)(=O)O)cc3cc(S(=O)(=O)O)c(N=Nc4ccc([N+](=O)[O-])cc4)c(N)c3c2O)c(C)c1.[Na+]` [compound 65836], the “% Response” value was 71 ± 4.6%.

For `COc1ccccc1N=Nc1c(S(=O)(=O)O)cc2cc(S(=O)(=O)O)c(N=Nc3ccc([N+](=O)[O-])cc3)c(N)c2c1O.[Na+]` [compound 65829], the “% Response” value was 71 ± 4.0%.

`NS(=O)(=O)c1ccc(N=NNc2ccc(C(=O)O)cc2)cc1.[Na+]` [compound 13232] was tested, and the “% Response” value was 101 ± 9.0%.

With `COc1cc(N=Nc2cc(S(=O)(=O)[O-])cc3cc(S(=O)(=O)[O-])cc(O)c23)c(C)cc1N=Nc1c(S(=O)(=O)[O-])cc2cc(Nc3ccccc3)ccc2c1O.[Na+].[Na+].[Na+]` [compound 47755] the IC50 [1] was 37.6 µM and the “% Response” value was 47 ± 3.7%.

`O=C(Nc1ccc2c(O)c(N=Nc3ccccc3)c(S(=O)(=O)[O-])cc2c1)Nc1ccc2c(O)c(N=Nc3ccccc3)c(S(=O)(=O)[O-])cc2c1.[Na+].[Na+]` [compound 47749] was tested, and the “% Response” value was 103 ± 58.1%.

For `O=C(Nc1cc[c]([Sb](=[O])([OH])[OH])cc1)Nc1cc[c]([Sb](=[O])([OH])[OH])cc1` [compound 15408], the “% Response” value was 100 ± 7.9%.

`Nc1ccc2cc(S(=O)(=O)[O-])c(N=Nc3ccc(-c4ccc(N=Nc5c(S(=O)(=O)[O-])cc6cc(S(=O)(=O)[O-])c(N=Nc7cccc([N+](=O)[O-])c7)c(N)c6c5O)cc4)cc3)c(O)c2c1.[Na+].[Na+].[Na+]` [compound 79744] was tested, and the IC50 [1] was 11.5 µM and the “% Response” value was 35 ± 2.9%.

In the case of `Cc1cc(N)ccc1N=Nc1ccc(Sc2ccc(N=Nc3c(S(=O)(=O)O)cc4cc(S(=O)(=O)O)c(N=Nc5ccc([N+](=O)[O-])cc5)c(N)c4c3O)cc2)cc1.[Na+]` [compound 65571], the “% Response” value is reported as 74 ± 5.5%.

`COc1ccc(C(=O)Nc2ccc(/C=C/c3ccc(NC(=O)c4ccc(OC)cc4)cc3S(=O)(=O)O)c(S(=O)(=O)O)c2)cc1.[Na+]` [compound 12858] was tested, and the “% Response” value was 98 ± 7.4%.

For `CCOc1cc(-c2ccc(N=Nc3c(S(=O)(=O)O)cc4ccc(N)cc4c3O)cc2)ccc1N=Nc1c(S(=O)(=O)O)cc2ccc(N)cc2c1O.[Na+]` [compound 44654], the “% Response” value was 61 ± 4.3%.

For `Nc1c(S(=O)(=O)[O-])cc2cc(S(=O)(=O)[O-])ccc2c1N=Nc1ccc(-c2ccc(N=Nc3c(N)c(S(=O)(=O)[O-])cc4cc(S(=O)(=O)[O-])ccc34)c(S(=O)(=O)[O-])c2)cc1.[Na+].[Na+].[Na+].[Na+].[Na+]` [compound 11243], the IC50 [1] was 12.6 µM and the “% Response” value was 49 ± 6.1%.

For `Nc1cccc(N=Nc2c(S(=O)(=O)[O-])cc3cc(Nc4ccc5c(O)c(N=Nc6cccc(N)c6)c(S(=O)(=O)[O-])cc5c4)ccc3c2O)c1.[Na+].[Na+]` [compound 51533], the “% Response” value was 67 ± 4.0%.

`Cc1cc(C(O)(c2ccc(Nc3ccccc3)cc2)c2ccc(Nc3ccc(S(=O)(=O)O)cc3)cc2)ccc1N` (stereo not shown) [NSC 5014] was tested, and the “% ATX Acitivity (10 μM)” value was 39 ± 4.3% and the IC50 (Table 5) was 1.27 µM.

For `O=C(Nc1ccc2cc(S(=O)(=O)O)cc(S(=O)(=O)O)c2c1)Nc1ccc2cc(S(=O)(=O)O)cc(S(=O)(=O)O)c2c1.[Na+]` [compound 12857], the “% Response” value was 100 ± 7.3%.

In the case of `NC(=N\N=C/c1ccccc1S(=O)(=O)O)/C(N)=N\N=C/c1ccccc1S(=O)(=O)O.[Na+]` [compound 47471], the “% Response” value is reported as 95 ± 3.0%.

`O=C(Nc1ccc2cc(S(=O)(=O)O)ccc2c1)c1ccc(N=Nc2c(S(=O)(=O)O)cc3cc(S(=O)(=O)O)cc(NC(=O)c4ccccc4)c3c2O)cc1.[Na+]` [compound 45620] was tested, and the IC50 [1] was 8.85 µM and the “% Response” value was 28 ± 3.7%.

In the case of `O=C(O)c1ccccc1N=N/C(=N\Nc1cc(S(=O)(=O)O)ccc1O)c1ccccc1` [compound 5359], the “% Response” value is reported as 94 ± 2.6%.

With `CCOc1ccc(N=c2ccc3c(-c4c(Cl)ccc(Cl)c4C(=O)O)c4ccc(Nc5ccc(OCC)cc5S(=O)(=O)O)cc4oc-3c2)cc1.[Na+]` [compound 8682] the “% Response” value was 52 ± 7.7%.

`O=C(Nc1ccc2cc(S(=O)(=O)O)cc(O)c2c1)Nc1ccc2cc(S(=O)(=O)O)cc(O)c2c1` [compound 37204] was tested, and the “% Response” value was 106 ± 60.5%.

In the case of `Cc1c(N)cc(S(=O)(=O)O)cc1NC(=O)c1cccc([N+](=O)[O-])c1` [compound 5000], the “% Response” value is reported as 100 ± 5.5%.

For `COc1cc(-c2ccc(N=Nc3c(S(=O)(=O)O)cc4cc(S(=O)(=O)O)c(N=Nc5ccc([N+](=O)[O-])cc5)c(N)c4c3O)c(OC)c2)ccc1N=Nc1ccc(N)cc1C.[Na+]` [compound 79737], the “% Response” value was 62 ± 2.8%.

With `Nc1ccc(C(=O)Nc2ccc(C(=O)Nc3ccc4c(O)cc(S(=O)(=O)O)cc4c3)cc2)cc1` [compound 1741] the “% Response” value was 60 ± 4.6%.

In the case of `Nc1ccc(C(=O)Nc2ccc(NC(=O)Nc3ccc(NC(=O)c4ccc(N)cc4)c(S(=O)(=O)O)c3)cc2S(=O)(=O)O)cc1.[Na+]` [compound 71960], the “% Response” value is reported as 88 ± 5.3%.

In the case of `Cc1c(N)cc(S(=O)(=O)O)c(N=Nc2ccc(-c3ccc(N=Nc4c(S(=O)(=O)O)cc5cc(S(=O)(=O)O)c(N=Nc6cccc([N+](=O)[O-])c6)c(N)c5c4O)cc3)cc2)c1N.[Na+]` [compound 80903], the IC50 [1] is reported as 5.88 µM and the “% Response” value is reported as 32 ± 2.6%.

`Nc1ccc2cc(S(=O)(=O)O)cc(O)c2c1N=Nc1ccc(-c2ccc(N=Nc3c(S(=O)(=O)O)cc4cc(S(=O)(=O)O)c(N=Nc5ccc([N+](=O)[O-])cc5)c(N)c4c3O)cc2)cc1` [compound 65855] was tested, and the IC50 [1] was 17.4 µM and the “% Response” value was 43 ± 3.8%.
